Drawing on patent US8742106B2 (Novartis AG, priority 2009, dated 2014), this text covers Kd and Ki for 9 compounds.

The target of assay [1] is T1, human orexin 2 receptors (Homo sapiens (Human), UniProt O43614). Kind of assay: Radioligand Binding Assay II ([3H]-SB649868 competition, cell membranes). As to conditions: read-out: binding II hOx2R Kd. On the procedure: (§1) Radioligand Binding Assay II
(§2) For crude cell membrane preparations, cells (CHO, Chinese hamster ovary or HEK, human embryonic kidney) expressing human orexin 1 or human orexin 2 receptors, were washed with HEPES (10 mM, pH 7.5), scraped off the culture plates with the same buffer, and centrifuged at 4° C. for 5 min at 2500×g. The cell pellet was either stored at −80° C. or used directly. Before the experiments, cell membranes were re-suspended in binding assay buffer (10 mM HEPES, 0.5% (w/v) bovine serum albumin, pH 7.5) by homogenisation with a Polytron homogeniser at 50 Hz for 20 s. Cell membranes were also used as made available by commercial providers.
(§3) Bound radioactivity was measured, and data were analysed with the program XLFIT or Graphpad Prism. Protein concentration was determined according to the Bradford/BioRad Protein Assay Kit.
(§4) In competition experiments, cell homogenates (150 μl) were incubated in assay buffer (10 mM HEPES, pH 7.5, 0.5% (w/v) bovine serum albumin, 5 mM MgCl2, 1 mM CaCl2, and tween 0.05%) for 1 h at room temperature with about 1 nM of the radioligand [^3H]-SB649868, 66 Ci/mmole, 50 μl), and with various concentrations of compounds of the invention (50 μl) in triplicates; non-specific binding was determined in the presence of almorexant (10 μM). Reactions were terminated by vacuum filtration, 3 washes of ice cold wash buffer (Tris-HCl pH 7.4/10 mM, with NaCl 154 mM).

Assay [2] addresses T1, human orexin 2 receptors. Kind of assay: Calcium Accumulation in Cells (FLIPR), antagonism of orexin A. Type of assay: cell-based. As to conditions: antagonism of orexin A, Cheng-Prusoff corrected; read-out: FLIPR hOx2R Ki. In a few lines: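 Antagonism was measured as block of orexin A-evoked Ca²⁺ fluorescence (FLIPR), with orexin A added one hour after test compound (usually 10^−9–10^−5 M), which was first read alone for agonist activity. Human orexin 2 receptor cells were dye-loaded with 2 μM Fluo4-AM and 0.1 mM probenecid for 1 h.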

Assay [3] deals with T2, human orexin 1 receptors (Homo sapiens (Human), UniProt O43613). The description is as above. Type of assay: cell-based. As to conditions: antagonism of orexin A, Cheng-Prusoff corrected; read-out: FLIPR hOx1R Ki.
T2 sequence (O43613 whole entry): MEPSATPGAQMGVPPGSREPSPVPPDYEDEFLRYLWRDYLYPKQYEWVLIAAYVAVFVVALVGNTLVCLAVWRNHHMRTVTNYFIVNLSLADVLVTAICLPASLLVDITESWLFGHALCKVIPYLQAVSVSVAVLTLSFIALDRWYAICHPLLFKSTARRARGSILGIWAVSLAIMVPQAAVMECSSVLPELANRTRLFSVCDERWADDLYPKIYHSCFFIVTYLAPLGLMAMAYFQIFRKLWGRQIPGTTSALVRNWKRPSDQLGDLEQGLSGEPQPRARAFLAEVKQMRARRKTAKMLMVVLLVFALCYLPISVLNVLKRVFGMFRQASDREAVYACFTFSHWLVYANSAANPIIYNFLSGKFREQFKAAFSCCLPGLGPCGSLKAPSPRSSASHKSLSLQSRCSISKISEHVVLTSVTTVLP
For assay [4], the target named is T2, human orexin 1 receptors. Nature of the assay: Radioligand Binding Assay II ([3H]-SB649868 competition, cell membranes). As to conditions: read-out: binding II hOx1R Kd. On the procedure: as §1, §2, §3
as §4, with “mM). Competition data is expressed in Table 2 as Kd [μM].” for “mM).”

T1 sequence (O43614 whole entry): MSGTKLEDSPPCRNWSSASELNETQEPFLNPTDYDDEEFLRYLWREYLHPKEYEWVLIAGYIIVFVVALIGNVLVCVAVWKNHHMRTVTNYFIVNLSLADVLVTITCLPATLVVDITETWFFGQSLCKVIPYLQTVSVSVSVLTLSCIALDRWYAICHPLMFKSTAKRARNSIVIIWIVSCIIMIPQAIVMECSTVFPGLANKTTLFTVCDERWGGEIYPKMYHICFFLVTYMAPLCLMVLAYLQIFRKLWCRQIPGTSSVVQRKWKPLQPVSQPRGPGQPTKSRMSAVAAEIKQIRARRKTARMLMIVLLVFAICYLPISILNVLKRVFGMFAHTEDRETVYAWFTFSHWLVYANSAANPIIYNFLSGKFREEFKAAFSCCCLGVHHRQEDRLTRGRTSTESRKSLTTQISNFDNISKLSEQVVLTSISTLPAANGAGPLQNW

For orientation: Kd means a measure of binding affinity in units of concentration. As usually defined, the Ki is a dissociation constant, usually derived from enzyme kinetics or from competition with a known ligand. As to `COc1ccc([C@H](C)NC(=O)COc2cc(C)c3c(-c4ccoc4C)nn(C)c3n2)cc1` [Example 6.34, (S)-2-(1,4-dimethyl-3-(2-methylfuran-3-yl)-1H-pyrazolo[3,4-b]pyridin-6-yloxy)-N-(1-(4-methoxyphenyl)ethyl)acetamide], the Kd is 188 nM on human orexin 2 receptors [1] and 70 nM at human orexin 1 receptors [4]. Besides, the Ki on human orexin 2 receptors [2] was found to be 113 nM; on human orexin 1 receptors [3] it was 103 nM.

In the case of `COc1ccnc(-c2nn(C)c3nc(OCC(=O)N[C@@H](C)c4ccc(C)cc4)cc(C)c23)c1` [Example 6.37, (S)-2-(3-(4-methoxypyridin-2-yl)-1,4-dimethyl-1H-pyrazolo[3,4-b]pyridin-6-yloxy)-N-(1-p-tolylethyl)acetamide], the dissociation constant (Kd) on human orexin 2 receptors [1] came out at 17 nM; at human orexin 1 receptors [4], 6 nM. The figures for the Ki at human orexin 2 receptors [2] and on human orexin 1 receptors [3] were 10 nM and 7 nM, respectively.

In the case of `Cc1ccc2c(n1)CC[C@@H]2NC(=O)COc1cc(C(F)F)c2c(-c3cc(C)oc3C)nn(C)c2n1` [Example 6.38, (S)-2-(4-(difluoromethyl)-3-(2,5-dimethylfuran-3-yl)-1-methyl-1H-pyrazolo[3,4-b]pyridin-6-yloxy)-N-(2-methyl-6,7-dihydro-5H-cyclopenta[b]pyridin-5-yl)acetamide], the Kd on human orexin 2 receptors [1] worked out at 271 nM; at human orexin 1 receptors [4] it was 123 nM. The Ki on human orexin 2 receptors [2] was determined as 64 nM; at human orexin 1 receptors [3] it was 91 nM.

Take `COc1ccc([C@H](C)NC(=O)COc2cc(C(F)F)c3c(-c4cc(C)oc4C)nn(C)c3n2)cc1` [Example 6.39, (S)-2-(4-(difluoromethyl)-3-(2,5-dimethylfuran-3-yl)-1-methyl-1H-pyrazolo[3,4-b]pyridin-6-yloxy)-N-(1-(4-methoxyphenyl)ethyl)acetamide]: the results for the Kd on human orexin 2 receptors [1] and at human orexin 1 receptors [4] were 65 nM and 20 nM, respectively. Also, the Ki was determined as 46 nM at human orexin 2 receptors [2] and 15 nM at human orexin 1 receptors [3].

As to `Cc1ccc2c(c1)CCC2NC(=O)COc1cc(C)c2c(C3CC3)nn(C)c2n1` (stereo not drawn) [Example 6.41, 2-(3-cyclopropyl-1,4-dimethyl-1H-pyrazolo[3,4-b]pyridin-6-yloxy)-N-(5-methyl-2,3-dihydro-1H-inden-1-yl)acetamide], the equilibrium dissociation constant (Kd) on human orexin 2 receptors [1] came to 225 nM; on human orexin 1 receptors [4], 908 nM. Moreover, the Ki at human orexin 2 receptors [2] stood at 29 nM; at human orexin 1 receptors [3], 495 nM.

As to `COc1ccc2c(c1)CC[C@@H]2NC(=O)COc1cc(C(F)F)c2c(C3CC3)nn(C)c2n1` [Example 6.42, (S)-2-(3-cyclopropyl-4-(difluoromethyl)-1-methyl-1H-pyrazolo[3,4-b]pyridin-6-yloxy)-N-(5-methoxy-2,3-dihydro-1H-inden-1-yl)acetamide], the results for the Kd at human orexin 2 receptors [1] and on human orexin 1 receptors [4] were 14 nM and 63 nM, respectively. Further, the Ki is 10 nM on human orexin 2 receptors [2] and 83 nM at human orexin 1 receptors [3].

On to `COc1ccc2c(c1)CC[C@@H]2NC(=O)COc1cc(C(F)(F)F)c2c(C3CC3)nn(C)c2n1` [Example 6.43, (S)-2-(3-cyclopropyl-1-methyl-4-(trifluoromethyl)-1H-pyrazolo[3,4-b]pyridin-6-yloxy)-N-(5-methoxy-2,3-dihydro-1H-inden-1-yl)acetamide], for which the Kd on human orexin 2 receptors [1] was 18 nM; at human orexin 1 receptors [4] it was 206 nM. Besides, the Ki on human orexin 2 receptors [2] turned out to be 3 nM; at human orexin 1 receptors [3], 234 nM.

Regarding `Cc1ccc2c(c1)CC[C@@H]2NC(=O)COc1cc(C)c2c(C3CC3)nn(C)c2n1` [Example 6.44, (S)-2-(3-cyclopropyl-1,4-dimethyl-1H-pyrazolo[3,4-b]pyridin-6-yloxy)-N-(5-methyl-2,3-dihydro-1H-inden-1-yl)acetamide], the results for the Kd on human orexin 2 receptors [1] and on human orexin 1 receptors [4] were 28 nM and 67 nM, respectively. In addition, the values for the Ki on human orexin 2 receptors [2] and on human orexin 1 receptors [3] were 14 nM and 223 nM, respectively.

For the compound `Cc1cc(OCC(=O)NC(C)c2cnc3[nH]ccc3c2)nc2c1c(C1CC1)nn2C` (stereo not drawn) [Example 6.57, N-(1-(1H-pyrrolo[2,3-b]pyridin-5-yl)ethyl)-2-(3-cyclopropyl-1,4-dimethyl-1H-pyrazolo[3,4-b]pyridin-6-yloxy)acetamide], the figures for the Kd at human orexin 2 receptors [1] and at human orexin 1 receptors [4] were 170 nM and 358 nM, respectively. For the same compound, the figures for the Ki on human orexin 2 receptors [2] and at human orexin 1 receptors [3] were 77 nM and 658 nM, respectively.
